The source of these data is patent US20110053897A1 (IRM LLC, priority 2009, published 2011).

By IC50 is commonly meant the midpoint of a concentration-inhibition curve.

The first assay has as its target T1, Syk kinase (Homo sapiens, UniProt P43405).
T1 construct: purchased
The assay can be described thus: Syk kinase inhibition, Caliper LabChip off-chip mobility-shift kinase assay. The following applies: Caliper LabChip assay; read-out: Syk Enzyme IC50. In kind it is biochemical. How it is done: Compounds of the examples and Table 1 provided herein were assayed to measure their capacity to inhibit Syk kinase.
Compounds of the examples and Table 1 provided herein were assessed for their ability to inhibit Syk kinase by utilizing Caliper Life Sciences' proprietary LabChip™ technology. The off-chip incubation mobility-shift kinase assay uses a microfluidic chip to measure the conversion of a fluorescent peptide substrate to a phosphorylated product. The reaction mixture, from a microtiter plate well, is introduced through a capillary sipper onto the chip, where the nonphosphorylated substrate and phosphorylated product are separated by electrophoresis and detected via laser induced fluorescence. […] The phosphorylated product migrates through the chip faster than the non-phosphorylated substrate, and signals from the two forms of the peptide appear as distinct peaks. Caliper's data analysis software (HTSWA) determines peak heights, from which the ratio of product to the peak sum P/(P+S) and percent (%) conversion is calculated. This value is used to compare compound wells to control wells present on the plate, and thereby determine the % inhibition values for the compound. The formula used to calculate % inhibition is as follows, where C100% is the average % conversion of the 100% activity wells and Co% is the average % conversion of the 0% activity wells: (1−(% conversionofsample−C0%)/(C100%−C0%))*100.
Compounds (10 mM stocks in 100% DMSO) are diluted to a final concentration of 5 μM for single point inhibition experiments, and a series dilution of 10, 3, 1, 0.3, 0.1, 0.03, 0.01, 0.003, 0.001, 0.0003, 0.0001, and 0.00003 μM were made for IC50 determination. Generally, 12 μL of enzyme buffer containing purified kinase (various amount; various suppliers), 100 mM HEPES, pH 7.5, 1 mM DTT (Calbiochem, 2333153), 10 mM MgCl2 (Sigma, M-1028) or 10 mM MnCl2 (Sigma, M-1787) (assay specific), and 0.002% Brij-35 (Sigma, B4184) are added to each well. Compound and enzyme are allowed to pre-incubate for 15 minutes. 12 μL of peptide/ATP buffer containing 100 mM HEPES, pH 7.5, 1.5 μM fluorescein-labeled peptide (specific to kinase of interest), ATP (at KM apparent, Sigma, A9187), and 0.002% Brij-35 is then added to each well to initiate the reaction. The final concentration of DMSO in the well is 4%. Generally, reactions are incubated for 1 to 1.5 hours at room temperature to obtain adequate conversion of peptide to phosphorylated product in the linear range of the reaction. Reactions are terminated with the addition of 45 μL of Stop Buffer (containing 20 mM EDTA). Plates are then read on the LabChip 3000 using a 12-sipper LabChip. % conversion values and % inhibition values are obtained as provided and IC50 curves of compounds are generated using GraphPad Prism Version 4 or 5.01, or XLfit Version 4.3.2. When using GraphPad Prism, a nonlinear curve fit using the sigmoidal dose response—variable slope fit was used to graph IC50 curves and determine IC50 values and hillslopes. When using XLfit, Fit Model 205 (4-Parameter Logistic Model) is used to generate and fit the IC50 curve.
As to `CC(O)c1cc(Nc2cc3ccn(CCO)c(=O)c3c(NC(C)(C)C)n2)ncn1` (centres unmarked) [compound 727], the IC50 is 30 nM.
As for `CC(C)(C)Nc1nc(Nc2cc(C(O)C(F)(F)F)ccn2)cc2ccn(CC(N)=O)c(=O)c12` (centres unmarked) [compound 613], the IC50 worked out at 142 nM.
On the same count and under the same terms, next, `CC(C)(C)Nc1nc(Nc2cc(C(C)(C)C(=O)O)ccn2)cc2ccn(CCO)c(=O)c12` [compound 861]: 169 nM; `CCn1ccc2cc(Nc3cc(C)ccn3)nc(NC3CCC(C)(O)CC3)c2c1=O` (centres unmarked) [compound 950]: 53 nM.
Take `CC(C)(C)Nc1nc(-c2cnc(N)nc2)cc2ccn(C3COC3)c(=O)c12` [compound 921]: the IC50 amounted to 21 nM.
The same measure, in the same setting: next, `CCCn1ccc2cc(-c3cnc(N)nc3)nc(NC(C)(C)C)c2c1=O` [compound 914]: 108 nM.
Consider `CC(C)n1ccc2cc(Nc3cnccn3)nc(NC(C)(C)C)c2c1=O` [compound 822], for which the IC50 came to 165 nM.
As to `CCn1ccc2cc(Nc3nccc(O)n3)nc(N[C@H]3CC[C@@H](O)C3)c2c1=O` [compound 961], the IC50 was determined as 23 nM.
`COCC(COC)n1ccc2cc(-c3cnc(N)nc3)nc(NC(C)(C)C)c2c1=O` [compound 936]: the IC50 amounted to 15 nM.
With `O=c1[nH]ccc2cc(Nc3cnccn3)nc(NC3CCCC3)c12` [compound 766], the IC50 was 7 nM.
Still for that read-out and setting: in the case of `CC(C)n1ccc2cc(-c3cnc(N)nc3)nc(N[C@H]3CC[C@@H](CO)C3)c2c1=O` [compound 1030] it was 48 nM.
As to `CC(C)(C)Nc1nc(Nc2cc(S(C)(=O)=O)ccn2)cc2ccn(CCO)c(=O)c12` [compound 699], the IC50 came to 99 nM.
Take `CC(C)(C)Nc1nc(-c2cnc(N)nc2)cc2ccn(CC3CCOCC3)c(=O)c12` [compound 919]: the IC50 worked out at 81 nM.

The same assay, now with this note: read-out: Syk Enzyme IC50.
Turning to `Nc1ncc(-c2cc3cc[nH]c(=O)c3c(NCC3CC3)n2)cn1` [compound 189], the IC50 is 384 nM.
On the same count and under the same terms, in the case of `Cc1cc(Nc2nc(-c3cncc(C(=O)N4CCOCC4)c3)cc3cc[nH]c(=O)c23)ccc1C1CCN(C2CC2)CC1` [compound 208] it was 112 nM; in that of `Cc1ccnc(Nc2cc3cc[nH]c(=O)c3c(Nc3ccc(C4CCN(C5CC5)CC4)c(C)c3)n2)c1` [compound 252], 32 nM.
`Cc1ccnc(Nc2cc3cc[nH]c(=O)c3c(N3CC[C@@H](O)C3)n2)c1` [compound 401]: the IC50 was 967 nM.
On to `CCNC(=O)Cn1ccc2cc(Nc3cnccn3)nc(NC(C)C)c2c1=O` [compound 321], for which the IC50 was 177 nM.
Regarding `CCn1ccc2cc(Nc3cc(C)ccn3)nc(N[C@H]3CCC[C@@H]3O)c2c1=O` [compound 422], the IC50 came to 86.1 nM.
On to `COCC(O)CN1CCC(c2ccc(Nc3nc(-c4cncc(OC)n4)cc4cc[nH]c(=O)c34)cc2C)CC1` (centres unmarked) [compound 142], for which the IC50 is 7 nM.
In the case of `Cn1ccc2cc(-c3cnc(N)nc3)nc(NC3CC3)c2c1=O` [compound 38], the IC50 worked out at 62 nM.
For `COc1cncc(-c2cc3cc[nH]c(=O)c3c(Nc3ccc(C4CCN(C(C)C(=O)O)CC4)c(C)c3)n2)n1` (centres unmarked) [compound 117], the IC50 was determined as 22 nM.
Still for that read-out and setting: next, `COc1ccc(Nc2nc(Nc3cnccn3)cc3ccn(C)c(=O)c23)cc1` [compound 365]: 361 nM.
As for `COc1cncc(-c2cc3cc[nH]c(=O)c3c(Nc3ccc(C4CCN(CC#N)CC4)c(C)c3)n2)n1` [compound 133], the IC50 came to 130 nM.
As to `COc1cncc(-c2cc3cc[nH]c(=O)c3c(Nc3ccc(C4CCN(CC(N)=O)CC4)c(C)c3)n2)n1` [compound 134], the IC50 amounted to 40 nM.
Turning to `COc1cncc(-c2cc3cc[nH]c(=O)c3c(Nc3ccc(C4CCN(C(C)C)CC4)c(C)c3)n2)n1` [compound 165], the IC50 was determined as 3 nM.
Same read-out and setting: next, `Cc1ccnc(Nc2cc3cc[nH]c(=O)c3c(N3CC[C@@H](CO)C3)n2)c1` [compound 399]: 998 nM.
As to `COc1cncc(-c2cc3cc[nH]c(=O)c3c(Nc3ccc(C4CN(CCC#N)C4)cc3)n2)n1` [compound 153], the IC50 is 32 nM.
For `Cn1ccc2cc(Nc3cnccn3)nc(Nc3cccc(S(C)(=O)=O)c3)c2c1=O` [compound 390], the IC50 is 751 nM.
